From US20210322350A1, “EXOGENOUS KETONE SUPPLEMENTATION COMPOSITIONS, SYSTEMS AND METHODS” (Ketone Clarity LLC, priority 2020, published 2021)

Tests used:
[1] = Bone density measurements during D-BHB consumption; type: in vivo; conditions: 10 g daily; period during which bone loss was expected
From the text: FIG. 20 is a graphical illustration of sustained bone protection resulting from enhanced D-BHB levels according to the claimed invention. Loss of bone density can be statistically predicted and measured during specific time of life events such as post-menopause as well as during space missions for astronauts in space. […] Similar benefits against bone loss for space based applications are indicated and expected with consumption of 20 g of exogenous D-BHB daily.

[2] = Physical endurance on a measured exercise course; type: in vivo
From the text: FIG. 16 is a graphical illustration of improved physical endurance resulting from enhanced D-BHB levels according to the claimed invention. While understanding of the mechanism of ketone enhancement of physical endurance is only beginning, there is a direct and measurable benefit of consumption of natural D-Beta HydroxyButyric acid to enhance physical exertion and post-exercise activity recovery. FIG. 16 illustrates the physical performance parameter in which a subject with and without natural D-BHB ketone supplementation is impeded by shortness of breath and muscle pain and drop in performance owing to lactic acid build-up in the body. Without natural D-BHB ketone supplementation on a measured exercise course pain and fatigue will occur after 27 minutes. […] While preferred consumption of natural D-BHB can range from 10 g-30 g of natural D-BHB, lesser or greater amounts may also be safely consumed for exercise improvement and benefits.

[3] = Glucose/Ketone Index (GKI); type: in vivo, human
Procedure: Introducing GKI: Measuring Glucose vs Ketones. FIG. 8 is a schematic illustration of the Glucose/Ketone Index. When measuring both blood ketone levels and blood glucose levels, taking reference from the Glucose/Ketone Index (GKI) can help guide a user to achieve therapeutic benefits according to the claimed invention. The Glucose/Ketone Index is measured by dividing the blood level of glucose by the blood level of ketones measured in mmol/L. By way of illustration, a healthy individual not following the ketogenic diet could have glucose levels of 5.0 mmol/L and ketone levels of 0.1 mmol/L. According to the GKI they would have a value of greater than 9 and as such would not be in ketosis. An individual following the ketogenic diet and potentially supplementing their diet with ketone salts or MCT oil may have a glucose level of 5.6 mmol/L and ketone level of 1.3 mmol/L, resulting in a GKI of 4.3. This moderate ketosis level can be useful for managing obesity and diabetes.
(§1) FIG. 9 is a graphical illustration of blood levels of ketones and glucose resulting from the claimed invention. In the graphical illustration, body ketone levels increase from 1.4 mmol/L to 2.7 mmol/L after 50 minutes of consuming 10 g of D-BHB. […]

[4] = Anti-depression and anti-anxiety mood enhancement; type: in vivo; conditions: in the absence of anti-depressant and/or anti-anxiety medication; at least 10 g at least twice per day
From the text: FIG. 18 is a graphical illustration of improved mental anti-depression and anti-anxiety activity resulting from enhanced D-BHB levels according to the claimed invention. […] While preferred consumption of natural D-BHB can range from 10 g-30 g of natural D-BHB, a best illustrative example reflects at least 10 g exogenous D-BHB supplementation at least twice per day.

[5] = Sensation of hunger after waking; type: in vivo; conditions: several hours after rising in the morning
From the text: FIG. 15 is a graphical illustration of lowered hunger resulting from enhanced D-BHB levels according to the claimed invention. While the sensation of hunger itself arises from a complex interplay of glucose, insulin and the hormone ghrelin, identification and measurement of hunger is easy and straightforward according to the claimed invention. Hunger is often a key reason why diet attempts such as attempting to follow the ketogenic diet or other diets fail. Hunger is also a significant impediment to individuals attempting to undergo a fasting state for health or other purposes. While even consuming a moderate amount such as 5 g of exogenous natural D-BHB ketone supplement can reduce the sensation of hunger, regular consumption of larger amounts such as 10 g-20 g represent a preferred embodiment of the claimed invention. […] Hunger reduction, however, is provided at any time of day according to the claimed invention and is not just morning dependent.

[6] = Sleep cycles (deep and light sleep time) with D-BHB taken prior to sleep; type: in vivo; conditions: over several sleep cycles
From the text: During deep sleep, a variety of functions take place in the mind and body. During deep sleep not only does physical recovery occur. The brain recuperates as well during which memories are consolidated and learning and emotions are processed. Physiologically, blood sugar levels and metabolism balance out and the immune system is energized. FIG. 11 is a graphical illustration of improved sleep time resulting from enhanced D-BHB levels according to the claimed invention based on the data detailed in Table 1.
The data gathered in Table 1 reflects unaided sleep cycles in bold together with sleep aided by 10-20 g D-BHB which is reflective of a preferred embodiment of the claimed invention. On average, unaided sleep results in approximately 1.5 hours of deep sleep in an eight hour sleep cycle. […] In a preferred and foreseen embodiment of the claimed invention, improved deep sleep is achieved as a result of exogenous ketone D-BHB supplementation.

[7] = Blood oxygen levels before and after D-BHB; type: in vivo; conditions: 30 minutes after 10 g; from 80%
From the text: FIG. 13 is a graphical illustration of enhanced blood oxygen resulting from enhanced D-BHB levels according to the claimed invention.

[8] = Gout pain and inflammation; type: in vivo
From the text: FIG. 21 is a graphical illustration of gout reduction resulting from enhanced D-BHB levels according to the claimed invention. Owing to the role of exogenous natural D-BHB as a regulatory element of the NLRP3 inflammasome, inflammations are reduced as a direct result of exogenous D-BHB supplementation. In a preferred embodiment, 10 g or more of D-Beta HydroxyButyric acid is consumed daily to reduce gout flare-ups.

[9] = Systolic and diastolic blood pressure after D-BHB ingestion; type: in vivo; conditions: 10 g; measurable within an hour, remains several hours
From the text: FIG. 12 is a graphical illustration of improved blood pressure resulting from enhanced D-BHB levels according to the claimed invention. In addition to increasing blood ketones and lowering blood glucose, consumption of exogenous D-BHB according to the claimed invention also has a direct and measurable impact on lowering blood pressure. […] Blood pressure reduction is measurable within an hour of ingestion and is positive effects of lower blood pressure remain for several hours afterwards.

[10] = Blood ketone levels after exogenous ketone supplementation; type: in vivo, human
From the text: Technical effect: raising blood ketone levels by currently known methods. FIG. 6 is a graphical illustration of exogenous ketone blood levels by three precursors using Medium Chain Triglycerides, ketone salts and ketone esters. […] In the healthy adult, blood ketone levels can be naturally raised from a 0.0 mmol/L baseline to 0.5 mmol/L while following a normal diet.
While MCT oil can raise blood ketone levels for a long duration, often the rise in ketone levels is nominal at best with a 0.5 mmol/L increase. Ketone salts can raise blood ketone levels to 1.5 mmol/L, but often do so with a metabolic load of heavy salt ingestion along with an undesired racemic mixture of both ‘D’ and ‘L’ isomers of BHB. The so called “ketone ester” synthetic products can raise blood ketone levels to 2-4 mmol/L when consumed at 30-35 g of product but the result is often short lasting.
FIG. 7 is a graphical illustration of D-BHB exogenous ketone blood levels.
as §1

[11] = Blood glucose levels after D-BHB consumption; type: in vivo, human
Procedure: FIG. 9 is a graphical illustration of blood levels of ketones and glucose resulting from the claimed invention. In the graphical illustration, body ketone levels increase from 1.4 mmol/L to 2.7 mmol/L after 50 minutes of consuming 10 g of D-BHB. While ketone levels increase, glucose levels are decreased from 5.2 mmol/L to 4.8 mmol/L. While blood ketone rates can change rapidly as ketones are consumed through exercise or metabolic activity, the lowering of glucose often happens over a prolonged period of time. Consequently, this example is a good introduction to the regulatory effects of the ketone body D-BHB which are independent of and often outlast the energy benefits provided by exogenous ketones even after they are consumed by the body.
FIG. 14 is a graphical illustration of lowered blood glucose measured in mmol/L as a result of daily 10 g consumption resulting from enhanced D-BHB levels according to the claimed invention. Diet plays a key role in the onset and progression of Type II diabetes and pre-diabetic conditions. The hallmark indication of the progression of this disease is identified through measurement of blood glucose levels. […] In a preferred embodiment 10-20 g of D-BHB are consumed, but more or less can be utilized in other embodiments of the claimed invention.

[12] = test system: HDAC; conditions: cited from earlier work
[13] = 750 mg/kg by gavage 24 hours after 0.5 or 6 Gy radiation; cited from earlier work
[14] = consumed at 30-35 g of product; short lasting; cited from earlier work

CC(O)CC(=O)O [D-BHB, D-Beta-HydroxyButyric Acid]
bone density [1]: bone density health and retention | post-workout recovery time [2]: markedly reduced | range of performance before pain and fatigue ([2]; 27 minutes without supplementation): 44 min | Glucose/Ketone Index (GKI) ([3]; after consuming 10 g): 1.8 | GKI levels ([3]; regular D-BHB consumption): 1-3 | cognitive mood enhancement [4]: cognitive improvement | sensation of hunger [5]: greater reduction to even omission of hunger sensations | extension of deep sleep [6]: extended by over an hour | blood oxygen level [7]: 99% | gout pain ([8]; 15 g, in three days): from extreme to very moderate | gout inflammation ([8]; continued daily consumption, in less than one week): entirely removed gout inflammation | systolic and diastolic blood pressure [9]: measurable decrease | body ketone level ([10]; 50 minutes after consuming 10 g, from 1.4 mmol/L): 2.7 mmol/L | blood ketone levels versus existing methods ([10]; consumption of 10-30 g): higher blood ketone levels | glucose level ([11]; after consuming 10 g, from 5.2 mmol/L): 4.8 mmol/L | blood glucose level ([11]; daily 10 g consumption, baseline over 7 mmol/L): ≤ 4 mmol/L

CC(O)CC(=O)[O-].[Na+] (centres unmarked) [b-OHB]
renal dysfunction ([12]; IR-injured kidney): ameliorated renal dysfunction | HDAC activity in the IR-injured kidney [12]: inhibited HDAC activity

C[C@@H](O)CCOC(=O)C[C@@H](C)O [ketone ester, (R)-3-hydroxybutyl (R)-3-hydroxybutyrate]
radiation-induced decrease of reticulocyte/erythrocyte ratio in bone marrow [13]: significantly attenuated | blood ketone levels raised to [14]: 2 to 4 mmol/L
